The text below walks through data of patent US9744189B1, “Compositions of lithium salts and methods of use” (University of South Florida, priority 2013, dated 2017).

Read-outs that look alike come from different tables or passages of the source.

For series [1] the following is noted: for AUC(0-72): 0-72 h; for TMAX: noncompartmental analysis; for time of peak brain lithium level (FIG. 4-5): post-dose.
Description: (§1) Male Sprague Dawley rats weighing 200-250 grams were housed in a vivarium with a 12 hour light-dark cycle. The rats were allowed to acclimate for a period of one week before any experiments were carried out, and were allowed free access to food and water throughout the experiment.
(§2) Animals in each treatment group were euthanized at 2, 24, 48, and 72 hours (n=3/time point) and blood was collected by cardiac puncture and carefully perfused with a pressure-controlled pump to maintain microvasculature integrity before removing brain tissue. Blood was centrifuged at 1600×g at room temperature for 10 minutes and plasma was separated. A 500 μl aliquot was diluted 10 fold in a 5% TCA and 10% IPA solution, vortexed and allowed to sit for 10 minutes in order to precipitate proteins. These aliquots were centrifuged at 3000×g for 30 minutes and the supernatant was transferred to clean tubes prior to measuring lithium content using atomic absorption spectroscopy (AAS). Brains were rinsed with PBS, weighed, and an equal volume of concentrated HNO3 was added. The brains were heated in nitric acid solution for 1 hour, allowed to cool to room temperature, then centrifuged at 3000×g for 1 hour. The supernatant was removed and diluted 10 fold in 10% IPA prior to measuring lithium content using AAS.
(§3) The reported parameters include CMAX, TMAX, area under curve (AUC), and apparent terminal half-life (HL_Lambda_z).
(§4) Lithium was measured using atomic absorption spectroscopy (AAS) (Shimadzu AA-6200; Shimadzu Scientific Instruments, Inc., Columbia, Md.). Peak height measurements were carried out referring to values obtained for standards of known concentrations. Lithium measurements were plotted using GraphPad PRISM software (GraphPad Software, Inc., La Jolla, Calif.) as mean±SEM and two tailed t-tests were used to assess the statistical significance at each time point for the pharmacokinetic curves. The criterion for rejection of the null hypothesis was p<0.05.
For series [2] the following is noted: for AUC(0-72): 0-72 h; for TMAX: noncompartmental analysis; for time of peak lithium plasma level (FIG. 2-3): post-dose.
Description: as §1, §2, §3, §4
Series [3] can be described thus: in vivo. The following applies: male, Sprague-Dawley, rat, plasma, oral, 4 mEq/kg.
Description: as §1, §2, §3, §4
A short description of series [4]: in vivo. The following applies: male, Sprague-Dawley, rat, brain, oral, 4 mEq/kg.
Description: as §1, §2, §3, §4
The conditions of series [5]: rats; carbonate vs chloride vs orotate; cited from earlier work.
The conditions of series [6]: previous reports; cited from earlier work.
For series [7] the following is noted: cited from earlier work.
[8] abbreviates: Brain, rats, 4 mEq/kg oral gavage.
Setting [9] is: Blood, rats, 4 mEq/kg oral gavage.

In the case of `O=C([O-])c1ccccc1O.[Li+]` [Lithium Salicylate, lithium salicylate], in series [1] (setting [8]), the “AUC(0-72)” value was found to be 153.1 µg·h/g and the TMAX was 48 h. For the same compound, in series [1] (brain, rats), the “time of peak brain lithium level (FIG. 4-5)” value (“time … (FIG. 4-5)” for short) was found to be 48 h. In series [2] (setting [9]), the CMAX was found to be 2.21 µg/mL, the “AUC(0-72)” value stood at 121.8 µg·h/mL and the TMAX was found to be 24 h. In addition, the “time of peak lithium plasma level (FIG. 2-3)” value (from here on “time … (FIG. 2-3)”) in series [2] (plasma, rats) is listed as “around 48 hours”. In addition, in “in vivo [3]”, the concentration at 24 h worked out at 2100 ng/mL, the concentration at 48 h was found to be 2000 ng/mL and the concentration at 72 h was around 250 ng/mL. Also, in the series “in vivo [4]”, the concentration at 24 h was around 2500 ng/mL, the concentration at 48 h is 3000 ng/mL and the concentration at 72 h worked out at 2000 ng/mL.
`O=C([O-])c1cc(=O)[nH]c(=O)[nH]1.[Li+]` [lithium orotate]: the “differences in uptake, distribution and excretion of the lithium ion” value (“differences in uptake” below) in series [5] was “no differences”.
On to `O=C([O-])[O-].[Li+].[Li+]` [lithium carbonate, reference compound], for which, in series [6], the time to elimination is at most 48 h. In addition, in series [1] (brain), the “brain lithium level at 24 hours” value was found to be 8 µg/mL and the “brain lithium level by 72 hours” value was “about 0.5 μg/ml”. Moreover, the “brain lithium level at 48 hours” value in series [1] (brain, 48 hours) is recorded as “about 3.8 μg/ml”. Moreover, the “time … (FIG. 4-5)” value in series [1] (brain, rats) amounted to 24 h. For the same compound, the “differences in uptake” value in series [5] is “no differences”. For the same compound, the “peak lithium plasma level relative to lithium lactate” value in series [2] (plasma, 24 hours) is listed as “about 2.5 times”. In addition, in series [2] (plasma, 24 hours post-dose), the “lithium plasma level at 24 hours (peak)” value is reported as “about 12 μg/ml”. Also, in series [2] (plasma), the “lithium plasma level by 48 hours” value is “about 0.5 μg/ml” and the “lithium plasma level by 72 hours” value is “around 0 μg/ml”. In series [2] (plasma, rats), the “time … (FIG. 2-3)” value is 24 h.
For `[Cl-].[Li+]` [lithium chloride], in series [5], the “differences in uptake” value is listed as “no differences”.
Turning to `CC(O)C(=O)[O-].[Li+]` (stereo not drawn) [Lithium Lactate, lithium lactate], in series [1] (setting [8]), the “HL_Lambda_z (apparent terminal half-life)” value came to 13.0 h, the “AUC(0-72)” value stood at 152.0 µg·h/g and the TMAX is 24 h. For the same compound, in series [1] (brain), the “brain lithium level at 24 hours” value was “around 4 μg/ml” and the “brain lithium level by 72 hours” value is reported as “negligible levels”. Further, the “time … (FIG. 4-5)” value in series [1] (brain, rats) was found to be 24 h. In series [2] (setting [9]), the CMAX came to 4.54 µg/mL, the “HL_Lambda_z (apparent terminal half-life)” value was found to be 6.9 h, the “AUC(0-72)” value is 157.2 µg·h/mL and the TMAX was 24 h. Moreover, in series [2] (plasma), the “lithium plasma level by 48 hours” value is “about 0.5 μg/ml” and the “lithium plasma level by 72 hours” value is listed as “around 0 μg/ml”. Besides, the “time … (FIG. 2-3)” value in series [2] (plasma, rats) amounted to 24 h.
Turning to `[Li]` [lithium], in series [7] (acute treatment), the elimination half-life is 24 h. Besides, in series [7] (in vivo), the “CNS levels of lithium relative to plasma levels” value is recorded as “approximately 40%”; the “serum levels considered toxic” value is on record as at least 2.0; the “serum levels that increase the likelihood of toxicity and detrimental effects” value is on record as “greater than 1.5 mEq/l”. Further, in series [7] (overdose), the “time to peak plasma levels after overdoses” value was 72 h. In series [7] (some chronically treated individuals), the elimination half-life is at most 60 h.
